IC50 data for 11 molecules are collected here from patent EP4745132A1 (Technoderma Medicines Inc., priority 2023, dated 2025).

One experiment concerns the target T1, NUAK1 (Homo sapiens, UniProt O60285).
T1 sequence (O60285 1-661): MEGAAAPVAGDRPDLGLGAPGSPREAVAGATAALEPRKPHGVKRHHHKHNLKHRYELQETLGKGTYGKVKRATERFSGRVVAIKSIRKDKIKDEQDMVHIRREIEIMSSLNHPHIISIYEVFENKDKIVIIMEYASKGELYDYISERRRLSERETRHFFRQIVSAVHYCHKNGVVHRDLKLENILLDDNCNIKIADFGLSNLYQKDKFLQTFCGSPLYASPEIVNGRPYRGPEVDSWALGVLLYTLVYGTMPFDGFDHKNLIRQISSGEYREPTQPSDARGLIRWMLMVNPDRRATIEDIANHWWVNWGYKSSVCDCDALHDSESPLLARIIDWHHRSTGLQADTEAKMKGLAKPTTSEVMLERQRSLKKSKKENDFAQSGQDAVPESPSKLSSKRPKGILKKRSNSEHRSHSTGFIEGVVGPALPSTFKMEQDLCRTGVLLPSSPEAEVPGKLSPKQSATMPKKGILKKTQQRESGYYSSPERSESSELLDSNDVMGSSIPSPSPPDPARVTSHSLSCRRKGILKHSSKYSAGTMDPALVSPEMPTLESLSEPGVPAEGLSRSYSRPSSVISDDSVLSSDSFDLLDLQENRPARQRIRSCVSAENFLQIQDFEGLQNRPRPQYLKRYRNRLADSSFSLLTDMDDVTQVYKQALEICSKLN
Description: Enzyme activity inhibition test, kinase activity assay based on P81 filter paper binding hot-spot technique. The format is biochemical. Particulars: final concentration of NUAK1 10 nM; 20 µM CHKtide peptide substrate; 33P-labeled ATP; 2 hours at room temperature; read-out: IC50 (nM) of Test Compounds against NUAK1. Here is the method: (§1) Test Example: Enzyme Activity Inhibition Test of NUAK1/NUAK2 Kinase Inhibitors
(§2) The inhibitory activity of the pyrimidinamine small molecules involved in the present application against NUAK1 and NUAK2 kinases was determined using a kinase activity assay based on the P81 filter paper binding hot-spot technique (Nat Biotechnol. 2011, 29:1039). A brief description is as follows:
(§3) The assay buffer system contained 20 mM Hepes (pH 7.5), 10 mM MgCl2, 1 mM EGTA, 0.01% Brij35 (L23 polyoxyethylene lauryl ether), 0.02 mg/mL BSA (bovine serum albumin), 0.1 mM Na3VO4, 2 mM DTT, and 1% DMSO.
(§4) • 1. A 20 µM substrate solution was prepared with freshly prepared test buffer and CHKtide peptide fragments (Sanchez Y. Science. 1997, 277: 1497-1501) were used as a substrate. • 2. Kinases were added and mixed gently (a final concentration of NUAK1 was 10 nM; and a final concentration of NUAK2 was 50 nM). • 3. Test compounds dissolved in 100% DMSO were each added to the above kinase reaction mixture solution via Acoustic Droplet Ejection (Echo550; nanoliter) and the mixture was incubated for 5 minutes at room temperature. • 4. ^33P-labeled ATP (a ratio of unlabeled ATP to labeled ATP was 25:1 or 2.5:1) was added. • 5. The mixture was incubated for 2 hours at room temperature. • 6. Kinase activity was tested using the P81 filter paper combined with hotspot technology.
(§5) The IC50 values of the test compounds against NUAK1/NUAK2 were calculated according to the above test. For specific results, see Table 1.
(§6) The IC50 values were calculated by using a formula derived from sigmoidal dose-response curve (variable slope): Y = Bottom + (Top−Bottom)/(1+10^(∧)((LogEC50−X)*Slope, [formula] where X is the logarithm of compound concentration, Y is the response (inhibition rate of kinase activity), and Y rises from bottom to top along the sigmoidal curve as the concentration increases. Table 1: IC50 (nM) of Test Compounds of the Present Application against NUAK1/NUAK2

The target of a further experiment is T2, NUAK2 (Homo sapiens, UniProt Q9H093).
T2 sequence (Q9H093 1-628): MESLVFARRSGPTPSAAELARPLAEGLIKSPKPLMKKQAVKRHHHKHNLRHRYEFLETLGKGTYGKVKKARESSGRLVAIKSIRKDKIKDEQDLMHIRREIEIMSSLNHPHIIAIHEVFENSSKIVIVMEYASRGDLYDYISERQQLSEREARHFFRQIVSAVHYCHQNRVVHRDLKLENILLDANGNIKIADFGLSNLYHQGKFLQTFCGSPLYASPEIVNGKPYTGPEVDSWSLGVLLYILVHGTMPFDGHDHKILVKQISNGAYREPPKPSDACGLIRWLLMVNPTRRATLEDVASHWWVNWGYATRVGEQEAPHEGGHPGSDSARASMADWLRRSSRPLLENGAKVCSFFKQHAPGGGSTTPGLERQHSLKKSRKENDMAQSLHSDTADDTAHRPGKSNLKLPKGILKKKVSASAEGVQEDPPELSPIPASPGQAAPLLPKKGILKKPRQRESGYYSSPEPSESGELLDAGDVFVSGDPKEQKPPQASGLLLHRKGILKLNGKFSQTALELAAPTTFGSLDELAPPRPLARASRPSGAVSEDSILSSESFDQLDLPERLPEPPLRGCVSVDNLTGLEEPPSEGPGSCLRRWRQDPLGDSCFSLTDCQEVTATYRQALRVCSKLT
The experiment is described as above. The format is biochemical. The following applies: final concentration of NUAK2 50 nM; 20 µM CHKtide peptide substrate; 33P-labeled ATP; 2 hours at room temperature; read-out: IC50 (nM) of Test Compounds against NUAK2. Here is the method: as §1, §2, §3, §4, §5, §6

In general, IC50 refers to the midpoint of a concentration-inhibition curve. For `COc1cc(N2CCN(C)CC2)ccc1Nc1ncc(Cl)c(N2CCC(C)(NS(=O)(=O)C3CC3)CC2)n1` [TDM-181175, N-(1-(5-chloro-2-((2-methoxy-4-(4-methylpiperazin-1-yl)phenyl)amino)pyrimidin-4-yl)4-methylpiperidin-4-yl)cyclopropanesulfonamide], the 50% inhibitory concentration (IC50) on NUAK1 was 20 nM; at NUAK2, 13 nM.

Consider `CN1CCN(c2ccc(Nc3nccc(N4CCC(C)(NS(=O)(=O)C5CC5)CC4)n3)cc2)CC1` [TDM-181165, N-(4-methyl-1-(2-((4-(4-methylpiperazin-1-yl)phenyl)amino)pyrimidin-4-yl)piperidin-4-yl)cyclopropanesulfonamide], for which the results for the half-inhibitory concentration (IC50) on NUAK1 and on NUAK2 were 39 nM and 72 nM, respectively.

On to `CN1CCN(c2ccc(Nc3ncc(Cl)c(N4CCC(C)(NC(=O)[C@@H]5CC5(F)F)CC4)n3)cc2)CC1` [TDM-181174, (S)-N-(1-(5-chloro-2-((4-(4-methylpiperazin-1-yl)phenyl)amino)pyrimidin-4-yl)-4-methylpiperidin-4-yl)-2,2-difluorocyclopropanecarboxamide], for which the IC50 at NUAK1 was 0.46 nM; at NUAK2 it was 1.44 nM.

For the molecule `CN1CCN(c2ccc(Nc3ncc(Cl)c(N4CCC(C)(NS(=O)(=O)C5CC5)CC4)n3)cc2)CC1` [TDM-181173, N-(1-(5-chloro-2-((4-(4-methylpiperazin-1-yl)phenyl)amino)pyrimidin-4-yl)-4-methylpiperidin-4-yl)cyclopropanesulfonamide], the values for the IC50 on NUAK1 and at NUAK2 were 1 nM and 3 nM, respectively.

Take `CN1CCN(c2ccc(Nc3nccc(N4CCC(C)(NC(=O)[C@@H]5CC5(F)F)CC4)n3)cc2)CC1` [TDM-181164, (S)-2,2-Difluoro-N-(4-methyl-1-(2-((4-(4-methylpiperazin-1-yl)phenyl)amino)pyrimidin-4-yl)piperidin-4-yl)cyclopropane-1-carboxamide]: the IC50 at NUAK1 came out at 6 nM; at NUAK2 it was 15 nM.

As for `CC1(NS(=O)(=O)C2CC2)CCN(c2ccnc(Nc3cnn(C4CCNCC4)c3)n2)CC1` [TDM-181137], the 50% inhibitory concentration (IC50) was found to be 71 nM on NUAK1 and 29 nM at NUAK2.

Take `CC1(NC(=O)[C@@H]2CC2(F)F)CCN(c2ccnc(Nc3cnn(C4CCNCC4)c3)n2)CC1` [TDM-181163]: the IC50 turned out to be 30 nM on NUAK1 and 15 nM at NUAK2.

As for `CN1CCN(c2ccc(Nc3ncc(Cl)c(CN4CCC(C)(NC(=O)[C@@H]5CC5(F)F)CC4)n3)cc2)CC1` [TDM-181182, (S)-N-(1-((5-chloro-2-((4-(4-methylpiperazin-1-yl)phenyl)amino)pyrimidin-4-yl)methyl)-4-methylpiperidin-4-yl)-2,2-difluorocyclopropane-1-carboxamide], at NUAK1, the IC50 amounted to 679 nM.

On to `CC1(NC(=O)[C@@H]2CC2(F)F)CCN(Cc2nc(Nc3cnn(C4CCNCC4)c3)ncc2Cl)CC1` [TDM-181186, (S)-N-(1-((5-chloro-2-((1-(piperidin-4-yl)-1H-pyrazol-4-yl)amino)pyrimidin-4-yl)methyl)-4-methylpiperidin-4-yl)-2,2-difluorocyclopropane-1-carboxamide], for which the IC50 on NUAK1 was 959 nM.

For the molecule `CN1CCN(c2ccc(Nc3ncc(Cl)c(CN4CCC(C)(NS(=O)(=O)C5CC5)CC4)n3)cc2)CC1` [TDM-181183, N-(1-((5-chloro-2-((4-(4-methylpiperazin-1-yl)phenyl)amino)pyrimidin-4-yl)methyl)-4-methylpiperidin-4-yl)cyclopropanesulfonamide], the IC50 at NUAK1 is 69 nM.

Consider `CC1(NC(=O)[C@@H]2CC2(F)F)CCN(c2nc(Nc3cnn(C4CCNCC4)c3)ncc2Cl)CC1`, for which the IC50 on NUAK1 worked out at 1.24 nM; at NUAK2, 2.76 nM.
